Source: ChEMBL document CHEMBL1909046, “DrugMatrix in vitro pharmacology data”

Columns and labels:
[1] = biological target: Cytochrome P450 2C19 (Homo sapiens, UniProt P33261); settings: bti-tn-5b1-4; also: in other assays of this panel Not Active means under 50% inhibition at 10 µM
[2] = biological target: Histamine H2 receptor (Homo sapiens, UniProt P25021); format: cell membranes, CHO-K1, Membrane; settings: cho-k1; also: in other assays of this panel Not Active means under 50% inhibition at 10 µM
[3] = biological target: Cannabinoid receptor 1 (Homo sapiens, UniProt P21554); format: cell membranes, Chem-1, Membrane; settings: chem-1; also: in other assays of this panel Not Active means under 50% inhibition at 10 µM
[4] = biological target: T1, Adenosine receptor A3 (Homo sapiens, UniProt P0DMS8); format: cell membranes, CHO-K1, Membrane; settings: cho-k1;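 also: radioligand binding assay with AB-MECA serving as the labeled ligand; in other assays of this panel Not Active means under 50% inhibition at 10 µM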
T1 sequence (P0DMS8 whole entry): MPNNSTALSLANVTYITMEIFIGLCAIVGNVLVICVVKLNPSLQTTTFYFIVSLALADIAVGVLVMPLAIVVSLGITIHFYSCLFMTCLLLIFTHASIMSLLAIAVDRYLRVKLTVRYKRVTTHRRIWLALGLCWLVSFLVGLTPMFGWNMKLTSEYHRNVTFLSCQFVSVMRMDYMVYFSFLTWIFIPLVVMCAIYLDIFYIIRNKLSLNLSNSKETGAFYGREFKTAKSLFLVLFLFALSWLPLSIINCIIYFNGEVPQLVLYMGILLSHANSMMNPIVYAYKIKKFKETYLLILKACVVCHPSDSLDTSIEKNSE

[5] = biological target: D(3) dopamine receptor (Homo sapiens, UniProt P35462); assay: DRUGMATRIX: Dopamine D3 radioligand binding (ligand: [3H] Spiperone); format: cell membranes, CHO, Membrane; settings: cho
[6] = biological target: Mitogen-activated protein kinase 1 (Homo sapiens, UniProt P28482); assay: DRUGMATRIX: Protein Serine/Threonine Kinase, ERK2 enzyme inhibition (substrate: Myelin Basic Protein); design: species or system Escherichia coli; settings: Not Active = under 50% inhibition at 10 µM
[7] = DRUGMATRIX: beta-Lactamase enzyme inhibition (substrate: Nitrocefin); design: species or system Bacillus cereus; settings: Not Active = under 50% inhibition at 10 µM

Histamine H2 receptor, sequence (P25021 whole entry): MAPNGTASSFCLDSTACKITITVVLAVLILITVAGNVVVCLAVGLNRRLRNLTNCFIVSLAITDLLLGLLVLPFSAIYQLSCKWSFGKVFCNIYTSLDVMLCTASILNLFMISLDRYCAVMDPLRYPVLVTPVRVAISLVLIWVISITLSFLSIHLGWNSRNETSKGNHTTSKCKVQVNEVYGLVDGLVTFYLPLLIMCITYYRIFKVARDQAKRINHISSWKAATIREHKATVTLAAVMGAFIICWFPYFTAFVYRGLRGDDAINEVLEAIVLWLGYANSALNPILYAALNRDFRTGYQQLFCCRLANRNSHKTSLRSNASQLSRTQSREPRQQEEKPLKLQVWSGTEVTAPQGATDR
Cannabinoid receptor 1, sequence (P21554 whole entry): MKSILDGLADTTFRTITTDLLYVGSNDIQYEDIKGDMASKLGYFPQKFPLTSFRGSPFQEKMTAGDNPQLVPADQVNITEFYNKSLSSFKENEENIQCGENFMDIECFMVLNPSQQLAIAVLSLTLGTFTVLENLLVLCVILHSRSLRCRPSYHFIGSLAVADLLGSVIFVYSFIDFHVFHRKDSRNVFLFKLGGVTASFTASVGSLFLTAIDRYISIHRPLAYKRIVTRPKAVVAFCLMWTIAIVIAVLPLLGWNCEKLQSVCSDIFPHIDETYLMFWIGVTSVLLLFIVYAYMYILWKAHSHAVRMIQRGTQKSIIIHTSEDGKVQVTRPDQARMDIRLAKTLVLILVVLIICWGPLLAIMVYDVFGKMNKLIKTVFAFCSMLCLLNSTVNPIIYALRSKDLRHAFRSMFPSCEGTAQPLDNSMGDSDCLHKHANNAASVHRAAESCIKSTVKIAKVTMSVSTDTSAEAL
Mitogen-activated protein kinase 1, sequence (P28482 whole entry): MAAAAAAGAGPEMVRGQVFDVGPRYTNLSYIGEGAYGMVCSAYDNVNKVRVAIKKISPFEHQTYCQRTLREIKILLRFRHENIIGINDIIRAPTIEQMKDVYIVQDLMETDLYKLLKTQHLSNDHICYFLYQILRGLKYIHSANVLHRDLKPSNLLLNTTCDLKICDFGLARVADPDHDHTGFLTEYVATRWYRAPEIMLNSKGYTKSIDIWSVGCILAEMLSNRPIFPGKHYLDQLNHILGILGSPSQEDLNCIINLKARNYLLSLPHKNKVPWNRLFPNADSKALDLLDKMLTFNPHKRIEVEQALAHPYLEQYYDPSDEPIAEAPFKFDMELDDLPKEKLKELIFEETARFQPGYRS
D(3) dopamine receptor, sequence (P35462 whole entry): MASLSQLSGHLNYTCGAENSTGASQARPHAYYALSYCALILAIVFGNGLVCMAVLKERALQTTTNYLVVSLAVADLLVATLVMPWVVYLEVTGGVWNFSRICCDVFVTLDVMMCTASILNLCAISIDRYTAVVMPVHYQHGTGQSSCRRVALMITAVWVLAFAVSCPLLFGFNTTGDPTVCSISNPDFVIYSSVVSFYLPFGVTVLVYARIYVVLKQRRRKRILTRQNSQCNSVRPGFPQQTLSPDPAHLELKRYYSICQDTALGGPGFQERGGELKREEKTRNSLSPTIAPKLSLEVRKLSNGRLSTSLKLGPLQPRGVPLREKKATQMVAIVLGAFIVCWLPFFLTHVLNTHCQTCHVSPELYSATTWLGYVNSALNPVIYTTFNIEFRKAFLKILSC
Cytochrome P450 2C19, sequence (P33261 whole entry): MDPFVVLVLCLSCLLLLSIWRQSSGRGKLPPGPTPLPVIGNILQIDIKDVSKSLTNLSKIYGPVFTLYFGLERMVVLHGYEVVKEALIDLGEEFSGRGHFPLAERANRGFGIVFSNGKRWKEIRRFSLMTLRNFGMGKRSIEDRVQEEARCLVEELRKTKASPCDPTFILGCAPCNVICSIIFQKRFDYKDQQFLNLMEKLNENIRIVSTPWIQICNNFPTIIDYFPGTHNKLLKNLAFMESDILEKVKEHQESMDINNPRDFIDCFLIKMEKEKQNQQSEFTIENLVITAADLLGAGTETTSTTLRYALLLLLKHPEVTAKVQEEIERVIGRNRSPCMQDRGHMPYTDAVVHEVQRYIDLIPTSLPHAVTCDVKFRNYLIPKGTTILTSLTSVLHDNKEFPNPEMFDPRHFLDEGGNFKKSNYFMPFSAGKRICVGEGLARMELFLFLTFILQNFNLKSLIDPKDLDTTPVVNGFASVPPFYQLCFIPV

COc1cccc2c1C(=O)c1c(O)c3c(c(O)c1C2=O)C[C@@](O)(C(C)=O)C[C@@H]3O[C@H]1C[C@H](N)[C@H](O)[C@H](C)O1 [DAUNORUBICIN]
Not Active: IC50 [1] | Ki [1] | IC50 [2] | IC50 [3] | IC50 [4] | IC50 [5] | IC50 [6] | IC50 [7] | Ki [7]

COc1ccccc1N
Not Active: IC50 [1] | Ki [1] | IC50 [2] | IC50 [3] | IC50 [4] | IC50 [5] | IC50 [6] | IC50 [7] | Ki [7]

CC[C@]1(O)C[C@@H]2CN(CCc3c([nH]c4ccccc34)[C@@](C(=O)OC)(c3cc4c(cc3OC)N(C)[C@H]3[C@@](O)(C(N)=O)[C@H](O)[C@]5(CC)C=CCN6CC[C@]43[C@@H]65)C2)C1 [VINDESINE]
Not Active: IC50 [1] | Ki [1] | IC50 [2] | IC50 [3] | IC50 [4] | IC50 [5] | IC50 [6] | IC50 [7] | Ki [7]

C[S+](C)[O-] [DIMETHYL SULFOXIDE]
Not Active: IC50 [1] | Ki [1] | IC50 [2] | IC50 [3] | IC50 [4] | IC50 [5] | IC50 [6] | IC50 [7] | Ki [7]

C[C@@H]1O[C@@H](O[C@H]2C[C@@H](O)[C@]3(CO)[C@H]4[C@H](O)C[C@]5(C)[C@@H](C6=CC(=O)OC6)CC[C@]5(O)[C@@H]4CC[C@]3(O)C2)[C@H](O)[C@H](O)[C@H]1O [OUABAIN]
Not Active: IC50 [1] | Ki [1] | IC50 [2] | IC50 [3] | IC50 [4] | IC50 [5] | IC50 [6] | IC50 [7] | Ki [7]

C#C[C@]1(O)CC[C@H]2[C@@H]3CCC4=CC(=O)CC[C@]4(C)[C@H]3CC[C@@]21C [ETHISTERONE]
Not Active: IC50 [1] | Ki [1] | IC50 [2] | IC50 [3] | IC50 [4] | IC50 [5] | IC50 [6] | IC50 [7] | Ki [7]

O=C(O)CCNC(=O)c1ccc(/N=N/c2ccc(O)c(C(=O)O)c2)cc1 [BALSALAZIDE]
Not Active: IC50 [1] | Ki [1] | IC50 [2] | IC50 [3] | IC50 [4] | IC50 [5] | IC50 [6] | IC50 [7] | Ki [7]

CN1C(=O)CN=C(c2ccccc2)c2cc([N+](=O)[O-])ccc21 [NIMETAZEPAM]
Not Active: IC50 [1] | Ki [1] | IC50 [2] | IC50 [3] | IC50 [4] | IC50 [5] | IC50 [6] | IC50 [7] | Ki [7]

NS(=O)(=O)c1cc(C2(O)NC(=O)c3ccccc32)ccc1Cl (stereo unspecified) [CHLORTHALIDONE]
Not Active: IC50 [1] | Ki [1] | IC50 [2] | IC50 [3] | IC50 [4] | IC50 [5] | IC50 [6] | IC50 [7] | Ki [7]

CC(=O)OCC(=O)[C@@]1(O)CC[C@H]2[C@@H]3CCC4=CC(=O)CC[C@]4(C)[C@@]3(F)[C@@H](O)C[C@@]21C [FLUDROCORTISONE ACETATE]
Not Active: IC50 [1] | Ki [1] | IC50 [2] | IC50 [3] | IC50 [4] | IC50 [5] | IC50 [6] | IC50 [7] | Ki [7]

COLISTIN
Not Active: IC50 [1] | Ki [1] | IC50 [2] | Ki [2] | IC50 [3] | Ki [3] | IC50 [4] | Ki [4] | IC50 [5] | Ki [5] | IC50 [6] | Ki [6] | IC50 [7] | Ki [7]

O=c1c(-c2ccc(O)cc2)coc2cc(O)cc(O)c12 [GENISTEIN]
Not Active: IC50 [1] | Ki [1] | IC50 [2] | IC50 [3] | IC50 [4] | IC50 [5] | IC50 [6] | IC50 [7] | Ki [7]

CN1C[C@@H]2C[C@H]1CN2c1cc2c(cc1F)c(=O)c(C(=O)O)cn2C1CC1 [DANOFLOXACIN]
Not Active: IC50 [1] | Ki [1] | IC50 [2] | IC50 [3] | IC50 [4] | IC50 [5] | IC50 [6] | IC50 [7] | Ki [7]

CN1CCN(c2c(F)cc3c(=O)c(C(=O)O)cn(CCF)c3c2F)CC1 [FLEROXACIN]
Not Active: IC50 [1] | Ki [1] | IC50 [2] | IC50 [3] | IC50 [4] | IC50 [5] | IC50 [6] | IC50 [7] | Ki [7]
